According to US9283236B2 (HUMAN MATRIX SCIENCES, LLC, priority 2008, dated 2016):
“Also recorded” adds a separate entry of the source.

How the values were obtained:
[1] = system: human fetal cardiac fibroblasts; test: One-step RT-PCR of elastin mRNA in cardiac fibroblast cultures; type: cell-based
[2] = system: IGF-IR; test: IGF-IR immunoprecipitation and anti-phosphotyrosine blot; type: cell-based, human
Experimental: Cells were lysed using an radioimmunoprecipitation assay buffer [50 mmol/L Tris-HCl, pH 7.4, 150 mmol/L NaCl, 1 mmol/L ethylenediamine tetraacetic acid, 10 mmol/L NaF, 1% Triton X-100, 0.1% sodium dodecyl sulfate, 1% sodium deoxycholate containing a cocktail of antiproteases (20 μg/ml leupeptin, 10 μg/ml aprotinin, 0.1 mmol/L phenylmethylsulfonyl fluoride, and 1 mmol/L dithiothreitol) and antiphosphates ([…] orthovanadate and 2 μg/ml pepstatin)], and 300 μg of protein extract was incubated with an antibody against IGF-IRβ for 1 hour at 4° C., followed by the addition of 4% protein A-beaded agarose left overnight, as previously described. The resulting protein-antibody conjugate was centrifuged at 4° C. and washed four times with phosphate-buffered saline. The final pellet was resuspended in sample buffer (0.5 mol/L Tris-HCl, pH 6.8, 10% sodium dodecyl sulfate, 10% glycerol, 4% 2-B-mercaptoethanol, and 0.05% bromphenol blue), and the mixture was boiled for 5 minutes. Proteins were resolved by 12% sodium dodecyl sulfate-polyacrylamide gel electrophoresis, transferred to nitrocellulose membranes, and then immunoblotted with anti-p-Tyr or anti-IGF-IR antibodies. The degree of expression or phosphorylation of immunodetected signaling molecules was measured by densitometry.
At the end of each experiment the cells were lysed as specified above, and 300 μg of protein extract were then precleared for 1 hour with normal rabbit agarose conjugated-IgG at 4° C. and incubated with rabbit polyclonal antibodies against IGF-IR-β, c-Src, or with Gα13 for 1 hour at 4° C., followed by the addition of 4% protein A-beaded agarose and left overnight. The resulting protein-antibody conjugate was centrifuged at 4° C. and washed four times with PBS. The final pellet was resuspended in sample buffer, and the proteins were resolved. Following immunoprecipitation of IGF-IR-β, the membrane was immunoblotted using monoclonal anti-p-Tyr antibody, stripped, and reprobed using anti-IGF-IR-β. Following immunoprecipitation of c-Src, the membranes were immunoblotted using polyclonal goat antibodies against anti-Gα13, while those immunoprecipitated with anti-Gα13 were developed with monoclonal anti-c-Src antibody. Blots were stripped and re-probed for equal loading.
The degree of expression or phosphorylation of immunodetected signaling molecules was measured by densitometry.

[3] = system: Gα13 and c-Src; test: Co-immunoprecipitation of Gα13 and c-Src; type: cell-based, human
[4] = system: human fetal cardiac fibroblasts; test: Quantitative assay of [3H]valine-labeled insoluble elastin; type: cell-based; settings: 72 hours
[5] = system: adult human cardiac fibroblasts; test: Anti-elastin immunostaining in adult cardiac fibroblasts; type: cell-based; settings: 1 to 50 nmol/L, 72 hours
Experimental: Control cell cultures received an equal amount of the solvent vehicle. […] ScienCell (San Diego, Calif.). At the end of the 72-hour incubation period with the indicated treatment, confluent cultures were either fixed in ice-cold 100% methanol at -20° C. […] The cultures were then incubated for 1 hour with 10 μg/ml polyclonal antibody to tropoelastin or with 10 μg/ml polyclonal antibody to collagen type I. All cultures were then incubated for an additional hour with fluorescein-conjugated goat anti-rabbit or with fluorescein-conjugated rabbit anti-goat secondary antibodies to detect elastin and collagen type I staining, respectively. Nuclei were counterstained with propidium iodide. Secondary antibody alone was used as a control. All of the cultures were then mounted in Elvanol and examined with a Nikon Eclipse […] microscope attached to a cooled charge-coupled device camera (Retiga EX; QImaging, Surrey, BC, Canada) and a computer-generated video analysis system (Image-Pro Plus software; Media Cybernetics, Silver Spring, Md.).

[6] = system: human fetal cardiac fibroblasts; test: Cytotoxic effects of supraphysiological aldosterone in cardiac fibroblast cultures; type: cell-based; settings: aldosterone 100 nmol/L and 1 μmol/L
[7] = system: human fetal cardiac fibroblasts; test: One-step RT-PCR of collagen type I mRNA in cardiac fibroblast cultures; type: cell-based; settings: 1 to 50 nmol/L, 24 hours, normalized to GAPDH mRNA, vs untreated control
[8] = system: Akt; test: Western blot of phospho-Akt (Ser473); type: cell-based, human
Experimental: (§1) Western blotting—Confluent fetal human cardiac fibroblast cultures were exposed with or without the treatment specified for the indicated time points. At the end of each experiment cells were lysed using an RIPA buffer (50 mM Tris.HCl, pH 7.4; 150 mM NaCl; 1 mM EDTA; 10 mM NaF; 1% Triton X-100; 0.1% SDS; 1% Na deoxycholate) containing a cocktail of antiproteases (20 μg/ml leupeptin, 10 μg/ml aprotinin, 0.1 mM PMSF, 1 mM DTT) and antiphosphates ([…] orthovanadate, 2 μg/ml pepstatin). Then 40-60 μg of protein extract was resuspended in sample buffer (0.5 M Tris.HCl, pH 6.8; 10% SDS; 10% glycerol; 4% 2-β-mercaptoethanol; and 0.05% bromophenol blue), and the mixture was boiled for 5 minutes. Protein lysates were resolved by precast SDS-PAGE gel (4-12% gradient), transferred to nitrocellulose membranes, blocked for an hour, and then immunoblotted with polyclonal anti-MR antibody, anti-phospho-c-Src (Tyr416) antibody, anti-phospho-Akt (Ser473) antibody, anti-Gα13 (goat) antibody, anti-SCAP2 antibody, or with buffer (TBS-T) at 4° C. overnight. All blots were then incubated with the appropriate HRP-conjugated secondary antibodies for an hour and examined using the enhanced chemiluminescence detection system. Blots were stripped and reprobed using specified antibodies. […] The degree of expression or phosphorylation of immunodetected signaling molecules was measured by densitometry.

[9] = system: human fetal cardiac fibroblasts; test: Quantitative assay of [3H]valine-labeled immunoprecipitable tropoelastin; type: cell-based; settings: 1 to 50 nmol/L, 72 hours, vs untreated
Experimental: Fetal human cardiac fibroblasts were grown to confluence in 35-mm culture dishes (100,000 cells/dish) in quadruplicate. […] Cultures were incubated for 72 hours, and the soluble and insoluble elastin were assessed separately in each dish. The cells were extensively washed with phosphate-buffered saline, and the soluble proteins present in the intracellular compartments were extracted overnight at 4° C. with 0.1 mol/L acetic acid in the presence of proteinase inhibitors. After centrifugation, the supernatants were precleaned by 30-minute incubation with 50 μl of 4% protein A-beaded agarose, and then 500 μl of the supernatant was incubated with 5 μg of polyclonal antibody to tropoelastin for 2 hours and subsequently with 50 μl of 4% protein A-beaded agarose for 3 hours at 4° C. The protein A-containing beads were sedimented by centrifugation, washed with immunoprecipitation buffer, mixed with scintillation fluid, and counted. […] The resulting pellets containing the insoluble elastin were then solubilized by boiling in 200 μl of 5.7 N HCl for 1 hour, and the aliquots were mixed in scintillation fluid and counted. […] Final results reflecting amounts of metabolically labeled insoluble elastin in individual cultures were normalized per their DNA content and expressed as counts per minute per 1 μg of DNA.

[10] = system: human fetal cardiac fibroblasts; test: Immunostaining of collagen type I fibers in confluent cultures; type: cell-based; settings: 1 to 50 nmol/L, 72 hours
[11] = system: c-Src; test: Western blot of phospho-c-Src (Tyr416); type: cell-based, human
Experimental: as §1

[12] = system: adult human cardiac fibroblasts; test: One-step RT-PCR of elastin mRNA in adult cardiac fibroblasts; type: cell-based; settings: 1 to 50 nmol/L, 24 hours, normalized to GAPDH mRNA
[13] = system: rat myocardial infarction model; test: Rat myocardial infarction model, postinfarction scar; type: in vivo; settings: treated during the postinfarction period, vs vehicle-treated animals
[14] = system: human fetal cardiac fibroblasts; test: Immunostaining of elastic fibers with anti-elastin antibody; type: cell-based; settings: 10 μM PP2, 1 hour pretreatment, 50 nM aldosterone
Experimental: At the end of the 72-hour incubation period with the indicated treatment, confluent cultures were either fixed in ice-cold 100% methanol at −20° C. (for elastin staining) or in 4% paraformaldehyde at room temperature (for collagen staining) for 30 minutes and blocked with 1% normal goat serum for 1 hour at room temperature. The cultures were then incubated for 1 hour with 10 μg/ml polyclonal antibody to tropoelastin or with 10 μg/ml polyclonal antibody to collagen type I. All cultures were then incubated for an additional hour with fluorescein-conjugated goat anti-rabbit or with fluorescein-conjugated rabbit anti-goat secondary antibodies to detect elastin and collagen type I staining, respectively. Nuclei were counterstained with propidium iodide. Secondary antibody alone was used as a control. All of the cultures were then mounted in Elvanol and examined with a Nikon Eclipse E1000 microscope attached to a cooled charge-coupled device camera (Retiga EX; QImaging, Surrey, BC, Canada) and a computer-generated video analysis system (Image-Pro Plus software; Media Cybernetics, Silver Spring, Md.).
Immunostaining—At the end of the 72-hour incubation period with the indicated treatment, confluent cultures were fixed in cold 100% methanol at −20° C. […]

[15] = 50 nM aldosterone, 30 minutes to 16 hours
[16] = 10 μM PP2 1 hour preincubation or 72 hour Gα13 siRNA transfection

C[C@]12CCC(=O)C=C1CC[C@@H]1[C@@H]2[C@@H](O)C[C@]2(C=O)[C@@H](C(=O)CO)CC[C@@H]12 [aldosterone]
time at which tropoelastin mRNA begins to significantly increase [1, 15]: 1 h | time of maximum tropoelastin mRNA level [1, 15]: 3 to 6 h | elastin mRNA transcript levels ([1]; 1 to 50 nmol/L, 24 hours, normalized to GAPDH mRNA, vs untreated control): heightened elastin mRNA levels, in a dose-dependent manner; also recorded: dose-dependently increased elastin mRNA transcript levels | IGF-IR tyrosine phosphorylation, aldosterone together with IGF-I vs IGF-I alone ([2]; 50 nmol/L aldosterone with 10, 25 or 50 ng/ml IGF-I, serum-free, 10 minutes): exhibit higher levels of IGF-IR tyrosine phosphorylation than their respective counterparts treated with the same doses of IGF-I alone | tyrosine phosphorylation of the IGF-IR ([2]; 10-minute exposure, 10% fetal bovine serum, aldosterone or BSA-conjugate 50 nM, IGF-I 100 ng/ml): transient increase in tyrosine phosphorylation of the IGF-IR above basal level; also recorded: produced a transient increase in tyrosine phosphorylation of the IGF-IR in control cultures; also recorded: significant increase in tyrosine phosphorylation of IGF-IR over basal levels | tyrosine phosphorylation of the IGF-IR, dependence on serum ([2]; presence vs absence of fetal bovine serum): induced a similar effect only in the presence of serum | time at which the Gα13/c-Src interaction was most evident ([3]; 50 nM aldosterone for 1, 5 or 10 minutes): 5 min | interaction between c-Src and Gα13 ([3]; vs untreated controls): increases the interaction between Gα13 and c-Src | [3H]valine incorporation into insoluble elastin ([4]; 1 to 50 nmol/L, vs untreated): proportional increase; also recorded: incorporate significantly more [^3H]valine into extracellular insoluble elastin | number of immunodetectable elastic fibers, adult cardiac fibroblasts [5]: significantly increased the number of immunodetectable elastic fibers | cytotoxic effects [6]: did not produce any cytotoxic effects | collagen type I mRNA transcript levels [7]: significant increase in the steady-state level of collagen type I mRNA; also recorded: significantly increased collagen type I mRNA transcript levels | basal phosphorylation of Akt ([8]; 50 nM aldosterone, 10 minutes): significant increase in the basal phosphorylation of Akt | [3H]valine-labeled tropoelastin [9]: proportional increase; also recorded: up to approximately three times more | deposition of collagen fibers [10]: subsequent deposition of collagen fibers | phosphorylation of c-Src on Tyr416 ([11]; 50 nM aldosterone, 10 minutes): increased phosphorylation of c-Src on Tyr416; also recorded: leading to activation of c-Src | elastin mRNA transcript levels, adult cardiac fibroblasts [12]: dose-dependently increased elastin mRNA transcript levels

COC(=O)[C@@H]1CC2=CC(=O)CC[C@]2(C)[C@@]23O[C@@H]2C[C@@]2(C)[C@@H](CC[C@@]24CCC(=O)O4)[C@H]13 [eplerenone]
postinfarction scar composition [13]: produced scars with abundant elastic fibers

CC(C)(C)n1nc(-c2ccc(Cl)cc2)c2c(N)ncnc21 [PP2]
effect on aldosterone-induced increase in elastin mRNA levels ([1]; agent added 1 hour (CT04 2 hours) before aldosterone, 24 hours): abolished an increase in elastin mRNA levels | effect on aldosterone-induced increase in insoluble elastin production ([4]; agent added 1 hour before aldosterone (50 nM or 1 to 50 nmol/L)): eliminated the aldosterone-induced increase in the net deposition of insoluble elastin | effect on aldosterone-induced increase in phosphorylation of Akt [8, 16]: is indeed eliminated; also recorded: eliminates this effect | effect on aldosterone-induced upregulation in elastic fiber production [14]: abolished an increase in elastin mRNA levels and the consequent upregulation in elastic fiber production | effect on aldosterone-induced c-Src phosphorylation [11, 16]: abolished this effect
